Reference: patent US12383533B2 (Frost Biologic, Inc., priority 2014, dated 2025)

How the values were obtained:
PC3 cells = test: Cell Viability Assay (ATPlite 1step), PC3; assay type: cell-based; conditions: Homo sapiens, PC-3, 72 hours; for percent inhibition of cell viability at 4 µM: PC3, 4 uM compound, read-out: Cell Viability % inhibition PC3 (4 uM Cpd); for percent inhibition of cell viability at 20 µM: PC3, 20 uM compound, read-out: Cell Viability % inhibition PC3 (20 uM Cpd)
Protocol: (§1) Cell Viability Assay Protocol
(§2) Cells were trypsinized, counted, and re-seeded into a 384-well tissue culture plate at 1000 cells per well in […] media. Cells were incubated at 37° C. in an atmosphere of 5% CO2 for 24 hours. Experimental compounds, initially dissolved in DMSO and diluted further in media were added to the wells and incubated for 72 hours. Cell viability was measured using the ATPlite 1step Luminescence Detection Assay system (Perkin Elmer) as described in the Assay kit instructions.
(§3) Cell Culture Lines and Media: (1) A2780 cells were cultured in RPMI media with 10% FBS and 1% antibiotics. Cells were typically split every 3-5 days at a 1:10 dilution; (2) PC3 cells were cultured in RPMI media with 10% FBS and 1% antibiotics. Cells were typically split every 3-5 days at a 1:4 dilution; (3) MCF-7 cells were grown in K-12F media with 10% FBS and 1% antibiotics. Cells were typically split every 3-5 days at a 1:10 dilution.

A2780 cells = test: Cell Viability Assay (ATPlite 1step), A2780; assay type: cell-based; conditions: Homo sapiens, 72 hours; for percent inhibition of cell viability at 4 µM: A2780, 4 uM compound, read-out: Cell Viability % inhibition A2780 (4 uM Cpd); for percent inhibition of cell viability at 20 µM: A2780, 20 uM compound, read-out: Cell Viability % inhibition A2780 (20 uM Cpd)
Protocol: as §1, §2, §3

SMILES	percent inhibition of cell viability at 4 µM (PC3 cells) [%]	percent inhibition of cell viability at 20 µM (PC3 cells) [%]	percent inhibition of cell viability at 4 µM (A2780 cells) [%]	percent inhibition of cell viability at 20 µM (A2780 cells) [%]
O=C(Nc1ccc(-c2cccc(C3CC3)c2)cn1)c1cccnc1 [Compound 24, N-[5-(3-cyclopropylphenyl)pyridin-2-yl]pyridine-3-carboxamide]	53.1	67.5	73.4	72.2
O=C(Nc1ccc(-c2cccc(NC3CC3)c2)cn1)c1cncnc1 [Compound 30, N-{5-[3-(cyclopropylamino)phenyl]pyridin-2-yl}pyrimidine-5-carboxamide]	63.4	71.9	77.4	78.7
COc1ccc(Cl)cc1-c1ccc(NC(=O)c2cncnc2)nc1 [Compound 21, N-[5-(5-chloro-2-methoxyphenyl)pyridin-2-yl]pyrimidine-5-carboxamide]	22.8	15.3	70.4	62.4
O=C(Nc1ccc(C2CC2)cn1)c1cncnc1 [Compound 6, N-(5-cyclopropylpyridin-2-yl)pyrimidine-5-carboxamide]	27	29.9	75.5	76.4
Cc1ncc(C(=O)Nc2ccc(-c3cccc(C4COC4)c3)cn2)cn1 [Compound 42, 2-methyl-N-{5-[3-(oxetan-3-yl)phenyl]pyridin-2-yl}pyrimidine-5-carboxamide]	80.3	84.5	85	85.2
NCCNc1ncc(C(=O)Nc2ccc(-c3cccc(OC4CC4)c3)cn2)cn1 [Compound 58, 2-[(2-aminoethyl)amino]-N-[5-(3-cyclopropyloxyphenyl)pyridin-2-yl]pyrimidine-5-carboxamide]	77.7	93.6	86.6	91.1
Cc1ccc(C(=O)Nc2ccc(-c3cccc(C4CC4)c3)cn2)cn1 [Compound 25, N-[5-(3-cyclopropylphenyl)pyridin-2-yl]-6-methylpyridine-3-carboxamide]	50.3	63.4	70.6	81.1
COc1ncc(C(=O)Nc2ccc(-c3cccc(OC4CC4)c3)cn2)cn1 [Compound 57, N-{5-[3-(cyclopropyloxy)phenyl]pyridin-2-yl}-2-methoxypyrimidine-5-carboxamide]	85.1	89	88.3	89.8
COc1ccc(-c2ccc(NC(=O)c3cncnc3)nc2)cc1Cl [Compound 22, N-[5-(3-chloro-4-methoxyphenyl)pyridin-2-yl]pyrimidine-5-carboxamide]	20.7	11.5	69	67.9
O=C(Nc1ccc(-c2ccsc2)cn1)c1cncnc1 [Compound 7, N-[5-(thiophen-3-yl)pyridin-2-yl]pyrimidine-5-carboxamide]	44.1	41.8	81.3	90.9
CC(C)(C)c1cccc(-c2ccc(NC(=O)c3cncnc3)nc2)c1 [Compound 46, N-[5-(3-tert-butylphenyl)pyridin-2-yl]pyrimidine-5-carboxamide]	68.5	67.6	71.1	71.8
O=C(Nc1ccc(-c2cccc(C3CC3)c2)cn1)c1cnc(O)nc1 [Compound 60, N-[5-(3-cyclopropylphenyl)pyridin-2-yl]-2-hydroxypyrimidine-5-carboxamide]	48.8	80.6	77.1	83.7
Cc1ccc(C(=O)Nc2ccc(-c3cccc(OC4CC4)c3)cn2)cn1 [Compound 29, N-{5-[3-(cyclopropyloxy)phenyl]pyridin-2-yl}-6-methylpyridine-3-carboxamide]	60.5	69.5	74.4	83.1
O=C(Nc1ccc(-c2ccccc2Cl)cn1)c1cncnc1 [Compound 4, N-[5-(2-chlorophenyl)pyridin-2-yl]pyrimidine-5-carboxamide]	36	44.2	79.7	87.5
Cc1ncc(C(=O)Nc2ccc(-c3cccc(N4CCN(C)CC4)c3)cn2)cn1 [Compound 35, N-{5-[3-(4-methylpiperazin-1-yl)phenyl]pyridin-2-yl}-2-methylpyrimidine-5-carboxamide]	39.6	58.8	54.6	75.9
Cc1ncc(C(=O)Nc2ccc(-c3cccc(OCCN4CCN(C)CC4)c3)cn2)cn1 [Compound 38, N-{-5-[3-(2-(4-methylpiperazin-1-yl)ethoxy)phenyl]pyridin-2-yl}-2-methylpyrimidine-5-carboxamide]	39.9	61.2	51.7	68.7
Cc1ccc(C(=O)Nc2ccc(-c3cccc(NC4CC4)c3)cn2)cn1 [Compound 33, N-{5-[3-(cyclopropylamino)phenyl]pyridin-2-yl}-6-methylpyridine-3-carboxamide]	56.1	54.9	69.5	74.8
O=C(Nc1ccc(-c2cccc(C3COC3)c2)cn1)c1cncnc1 [Compound 41, N-{5-[3-(oxetan-3-yl)phenyl]pyridin-2-yl}pyrimidine-5-carboxamide]	74.5	80.9	74.7	88.9
O=C(Nc1ccc(-c2cccc(NC3CC3)c2)cn1)c1cccnc1 [Compound 32, N-{5-[3-(cyclopropylamino)phenyl]pyridin-2-yl}pyridine-3-carboxamide]	57.3	57.6	71.9	77
COc1ncc(C(=O)Nc2ccc(-c3cccc(C4CC4)c3)cn2)cn1 [Compound 59, N-[5-(3-cyclopropylphenyl)pyridin-2-yl]-2-methoxypyrimidine-5-carboxamide]	82.6	88.5	87.8	90.4
Cc1ncc(C(=O)Nc2ccc(-c3cc(O)cc(C4CC4)c3)cn2)cn1 [Compound 65, N-[5-(3-cyclopropyl-5-hydroxyphenyl)pyridin-2-yl]-2-methylpyrimidine-5-carboxamide]	80.5	82.2	85.9	89.8
CN1CCN(c2cccc(-c3ccc(NC(=O)c4cccnc4)nc3)c2)CC1 [Compound 36, N-{5-[3-(4-methylpiperazin-1-yl)phenyl]pyridin-2-yl}pyridine-3-carboxamide]	24.3	42.5	51.3	55.5
NCCNc1ncc(C(=O)Nc2ccc(-c3cccc(C4CC4)c3)cn2)cn1 [Compound 56, 2-[(2-aminoethyl)amino]-N-[5-(3-cyclopropylphenyl)pyridin-2-yl]pyrimidine-5-carboxamide]	81.4	97.4	88	97.6
Cc1ncc(C(=O)Nc2ccc(-c3cccc(NC4CCNC4)c3)cn2)cn1 (stereo not shown) [Compound 55, 2-methyl-N-{5-[3-(pyrrolidin-3-ylamino)phenyl]pyridin-2-yl}pyrimidine-5-carboxamide]	81.1	82.2	80.3	87.4
O=C(Nc1ccc(-c2cccc(-c3ccccc3)c2)cn1)c1cncnc1 [Compound 40, N-[5-(biphenyl-3-yl)pyridin-2-yl]pyrimidine-5-carboxamide]	48.3	52.5	61	72
